In publication PMC8764033, “Single-molecule analysis of specificity and multivalency in binding of short linear substrate motifs to the APC/C” (Nature Communications, 2022):
Where two headings read alike, the source gives them in different places. Where a SMILES comes first, the peptide text is derived from it.

Legend:
Cdh1^WD40 = target: T1, Cdh1^WD40 (Saccharomyces cerevisiae, UniProt P53197); assay: SMOR assay (single-molecule off-rate, TIRF), yeast Cdh1^WD40; type: binding
T1 construct: the WD40 domains of yeast Cdh1 (aa 241–550; pNH144); made in house; host or cells: Sf9 insect cells (baculovirus)
T1 sequence (P53197 241-550): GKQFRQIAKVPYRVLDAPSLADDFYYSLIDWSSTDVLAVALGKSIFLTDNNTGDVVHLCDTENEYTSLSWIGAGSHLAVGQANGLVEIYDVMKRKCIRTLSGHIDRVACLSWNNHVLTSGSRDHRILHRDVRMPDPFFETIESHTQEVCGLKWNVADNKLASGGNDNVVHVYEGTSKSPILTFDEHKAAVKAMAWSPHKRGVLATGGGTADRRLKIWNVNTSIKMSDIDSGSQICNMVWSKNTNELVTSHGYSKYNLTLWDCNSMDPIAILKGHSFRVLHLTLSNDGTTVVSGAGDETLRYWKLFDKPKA
Description: (§1) Activators were cloned into the pFastBac HT A vector, with an N-terminal 2xStrep-Tag II. For some experiments, we constructed vectors for expression of the WD40 domains of yeast Cdh1 (aa 241–550; pNH144), human Cdh1 (aa 165–484; pNH164), or human Cdc20 (aa 162–484; pNH188). For SMOR, a C-terminal GFP tag was added. Bacmid plasmids are listed in Supplementary Table 3. Plasmids were transformed into DH10Bac cells, and purified Bacmid was used to transfect Sf9 cells to generate P1 baculovirus, which was used to generate P2 virus. SF9 cells were infected with the P2 virus for 48 h. Flash-frozen pellets were lysed by sonication or high-pressure homogenization in lysis buffer B (50 mM Tris-HCl pH 8, 150 mM KCl, 0.5 mM EDTA, 1 mM DTT, 10% Glycerol, EDTA-free protease inhibitor tablet, 1 µg ml^−1 pepstatin A). After the lysate was applied to the StrepTrap column, the column was washed with wash buffer B (lysis buffer B lacking protease inhibitors) and eluted in the same buffer containing 2.5 mM desthiobiotin.
(§2) For all SMOR experiments, 24 × 50 mm high precision glass coverslips (Bioscience Tools) and drilled microscope slides were passivated with a combination of PEG and PEG-biotin (coverslips) or PEG only (slides) following a previously published protocol for SiMPull[31]. Reaction chambers (~20 µl) were created using double-sided tape and epoxy. Protein was immobilized on the surface with 0.2 mg ml^−1 NeutrAvidin in buffer C (20 mM HEPES pH 7.5, 150 mM KCl, 10% glycerol, 0.05% Tween-20, 1 mM DTT). Excess NeutrAvidin was washed away and incubated with either biotin-conjugated mouse monoclonal anti-Strep-Tag II antibody (LSBio, Cat. No. LS-C203632-100) or biotin-conjugated rabbit polyclonal anti-GFP antibody (Rockland, Cat. No. 600-406-215) diluted in buffer C + BSA (0.1 mg ml^−1; Molecular Biology Grade Bovine Serum Albumin). Activator WD40 and activated APC/C (typically 50 µl containing about 65 ng APC/C, of which only a small fraction is immobilized on the glass) were immobilized using anti-Strep-Tag II, while APC/C alone was immobilized with anti-GFP. SMOR results were similar when performed in the buffer (wash buffer B) used in polarization anisotropy.
(§3) To capture dynamic protein–protein interactions, dye-labeled substrate diluted in buffer C + BSA was added to the chamber containing immobilized proteins. Interactions were imaged by TIRF microscopy as described below. For optimal signal-to-noise ratio, peptide concentration was no greater than 1 nM. Protein substrates included Hsl1 aa 667–872 and a C-terminal HaloTag followed by a TAP tag, and were produced by translation in rabbit reticulocyte lysates using TnT Quick Coupled Transcription/Translation System (Promega) (see Supplementary Table 5 for plasmids). Protein was purified with magnetic IgG beads and labeled on the bead with JF549 or JF646 dye so that unbound dye could be washed away. Purified dye-labeled protein was then cleaved from the beads using TEV protease. Before adding substrate to the reaction chamber, oxygen scavenging reagents were added (10 nM protocatechuate-3,4-dioxygenase, 2.5 mM protocatechuic acid, and 1 mM Trolox)[41]. A detailed description of the SMOR analysis pipeline is found in Supplementary Note 1.
(§4) Microscopy was performed with a Nikon Eclipse TE2000-E with Perfect Focus with a 100 × 1.49na oil, Apo TIRF DIC N2, 0.13-0.2, WD0.12 objective. Movies were recorded using the Andor iXon DU-897E-CSO. For visualizing GFP-tagged protein, a 491 nm laser was used with an ET525/50 (Chroma) filter for emission. For visualizing JF549-labeled substrate, a 561 nm laser was used with an ET595/50 (Chroma) filter for emission. For visualizing all Cy5-labeled peptides and JF646-labeled substrates, a 640 nm laser was used with an ET685/70 filter (Chroma) for emission. […]

hCdh1^WD40 = target: T2, hCdh1^WD40 (Homo sapiens, UniProt Q9UM11); assay: SMOR assay, human Cdh1 WD40; type: binding; conditions: human Cdh1, D-box binding; read-out: inferred kon
T2 construct: human Cdh1 (aa 165–484; pNH164); made in house; host or cells: Sf9 insect cells (baculovirus)
Description: as §1, §2, §3, §4

Cdh1 WD40 domain (yeast) = target: T3, Cdh1 WD40 domain (yeast) (Saccharomyces cerevisiae, UniProt P53197); assay: Fluorescence anisotropy, 10 nM Cy5-labeled degron peptide, yeast Cdh1 WD40; type: binding
T3 construct: the WD40 domains of yeast Cdh1 (aa 241–550; pNH144); 2xStrep-Tag II (N); made in house; host or cells: Sf9 insect cells (baculovirus)
T3 sequence (P53197 241-550): T1 sequence (P53197 241-550)
Source text: To determine the affinities of APC/C degrons for their binding sites, we first used conventional equilibrium binding assays of degron peptide binding to the activator. We used the baculovirus system to produce the WD40 domain of Cdh1 from the budding yeast Saccharomyces cerevisiae and measured fluorescence anisotropy to assess the binding of fluorescently-tagged degron peptides at increasing activator concentrations. The WD40 domain of yeast Cdc20 could not be expressed and was not studied.
as §1
Fluorescent degron peptides carried a C-terminal Cy5 label (CPC Scientific) and are listed in Supplementary Table 4. For anisotropy experiments, 10 nM fluorescent peptide was mixed with various concentrations of purified Cdh1 WD40 in wash buffer B at room temperature for 1 min, which we determined was sufficient for the binding reaction to reach equilibrium. Fluorescence was measured on a K2 Multifrequency Fluorometer at 25 °C. All Cy5-labeled peptides were excited with polarized light at 635 nm and emission was detected using a 700/75 nm bandpass filter (ET series, Chroma). […] Data were fitted to one-site equilibrium binding using GraphPad Prism version 8.4 to determine KD. Results were the same when peptide binding was measured in the buffer used in SMOR assays (buffer C, below).

Cdc20 = conditions: cited from earlier work
Source text: This specificity raises the exciting possibility of activator-specific targeted protein degradation as a therapeutic application.

APC/C^apo = target: T4, APC/C^apo (Saccharomyces cerevisiae, UniProt P38042+P53068); assay: SMOR assay, yeast APC/C^apo (no activator); type: binding
T4 construct: APC/C was purified from yeast cells; made in house; host or cells: S. cerevisiae W303 strain NHY13 (Cdc16-TAP, Apc1-GFP, cdh1 deleted)
Description: Yeast strains were derivatives of W303 and are listed in Supplementary Table 2. For APC/C purification, we used a strain carrying Cdc16-TAP and lacking Cdh1 (DOM1126); in most experiments, the strain also carried Apc1-GFP (NHY13). Yeast were grown in YPD media to OD600 = 0.8, collected and flash-frozen. Cells were lysed by bead beating in lysis buffer A (50 mM HEPES pH 7.5, 150 mM KCl, 10% glycerol, 0.2% Triton X-100, 63 µM B-glycerophosphate, 48 µM sodium fluoride, 1 µg ml^−1 pepstatin A, 1 µg ml^−1 leupeptin, 1 µg ml^−1 aprotinin, 1 mM PMSF, 1 mM DTT, 0.5 mM EDTA) and APC/C was purified using magnetic IgG beads. The beads were washed using wash buffer A (20 mM HEPES pH 7.5, 150 mM KCl, 10% Glycerol, 0.05% Triton X-100). After incubation with purified Cdh1 or Cdc20, the APC/C was cleaved off the beads with TEV protease in wash buffer A with 0.05% Tween-20 (for single-molecule studies) or 0.05% Triton X-100 (for ensemble assays such as ubiquitylation) and used immediately.
as §2, §3
Microscopy was performed with a Nikon Eclipse TE2000-E with Perfect Focus with a 100 × 1.49na oil, Apo TIRF DIC N2, 0.13-0.2, WD0.12 objective. Movies were recorded using the Andor iXon DU-897E-CSO. For visualizing GFP-tagged protein, a 491 nm laser was used with an ET525/50 (Chroma) filter for emission. For visualizing JF549-labeled substrate, a 561 nm laser was used with an ET595/50 (Chroma) filter for emission. For visualizing all Cy5-labeled peptides and JF646-labeled substrates, a 640 nm laser was used with an ET685/70 filter (Chroma) for emission. Initially, for each substrate tested, we acquired movies at multiple intervals to deduce the optimal interval to decrease bleaching. µManager version 2.0 was used to control the microscope and record time-lapse movies.

[1] = mean of the listed replicates, source data of Fig. 1a (there μM), read-out: Mean Kd
[2] = replicate 2021-11-10, source data of Fig. 1a (there μM), read-out: Kd
[3] = replicate 2019-07-08, source data of Fig. 1a (there μM), read-out: Kd

T2 sequence (Q9UM11 165-484): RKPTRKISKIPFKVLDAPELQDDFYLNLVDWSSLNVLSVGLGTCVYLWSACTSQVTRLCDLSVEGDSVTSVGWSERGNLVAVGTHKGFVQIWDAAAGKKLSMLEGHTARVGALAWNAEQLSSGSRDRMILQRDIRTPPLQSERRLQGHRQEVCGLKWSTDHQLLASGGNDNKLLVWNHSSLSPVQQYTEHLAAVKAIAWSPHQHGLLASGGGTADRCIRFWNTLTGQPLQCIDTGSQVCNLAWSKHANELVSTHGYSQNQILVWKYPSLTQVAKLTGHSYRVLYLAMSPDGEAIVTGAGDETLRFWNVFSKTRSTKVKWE

Molecule: CC[C@H](C)[C@H](NC(=O)[C@H](CC(=O)O)NC(=O)[C@H](CO)NC(=O)[C@H](CC(C)C)NC(=O)[C@H](C)NC(=O)[C@H](C)NC(=O)[C@H](CCCNC(=N)N)NC(=O)[C@H](CCCCN)NC(=O)[C@@H]1CCCN1C(=O)[C@H](CCCCN)NC(=O)[C@H](CCC(N)=O)NC(=O)[C@@H](N)CCC(=O)O)C(=O)N[C@H](C(=O)N[C@@H](CC(N)=O)C(=O)N[C@@H](CO)C(=O)N[C@@H](Cc1ccccc1)C(=O)N[C@@H](CC(N)=O)C(=O)N[C@@H](CCCCN)C(=O)N[C@@H](CCSC)C(=O)N[C@@H](CC(N)=O)C(=O)N[C@@H](CCCCN)C(=O)O)[C@@H](C)O [Hsl1 D box] (H-EQKPKRAALSDITNSFNKMNK-OH)
- kon (Cdh1^WD40; inferred from koff and anisotropy KD, yeast Cdh1, read-out: association rate constant kon): 800000 M⁻¹ s⁻¹
- koff (Cdh1^WD40; reciprocal of mean dwell time, read-out: dissociation rate constant koff): 2.8 s⁻¹
- kon (hCdh1^WD40): 100000 M⁻¹ s⁻¹
- Kd (Cdh1 WD40 domain (yeast); [1]): 3.48 µM

Molecule: Cc1ncc([N+](=O)[O-])n1CCOC(=O)NC(Nc1ncccn1)C(Cl)(Cl)Cl (centres unmarked) [Apcin]
- activator specificity (in words) (Cdc20): Cdc20 specificity

Molecule: (Cy5)-SLIFDAFNQIR [Cdh1 IR, Cy5-labeled yeast Cdh1 C-terminal IR peptide]
- Dwell Time (APC/C^apo; Supplementary Table 1, replicate 1 (movie listed first)): 0.616 ± 0.019 s
- Dwell Time (APC/C^apo; Supplementary Table 1, replicate 2 (movie listed second)): 0.557 ± 0.011 s
- mean dwell time (APC/C^apo; representative movie, ± SE, buffer C + BSA): 0.616 ± 0.02 s

Molecule: EQKPKRAALSDITNSFNKMN-K(Cy5) [Hsl1 D box and dark KEN, Cy5 Hsl1 D box peptide (10 nM) in presence of unlabeled Hsl1 KEN (100 µM)]
- Kd (Cdh1 WD40 domain (yeast); [1]): 1.12 µM
- Kd (Cdh1 WD40 domain (yeast); [2]): 1.04 µM

Molecule: EQKPKRAALSDITNSFNKMN-K(Cy5) [Hsl1 D box and dark KEN mutant, Cy5 Hsl1 D box peptide (10 nM) in presence of unlabeled mutated Hsl1 KEN (100 µM)]
- Kd (Cdh1 WD40 domain (yeast); [1]): 2.86 µM
- Kd (Cdh1 WD40 domain (yeast); [2]): 2.16 µM
- Kd (Cdh1 WD40 domain (yeast); replicate 2021-11-15, source data of Fig. 1a (there μM), read-out: Kd): 3.56 µM
- Kd (Cdh1 WD40 domain (yeast); representative single experiment, Fig. 1c, dark = unlabeled peptide 100 µM, read-out: KD): 3.6 µM

Molecule: GVSTNKENEGPEYPTKIE-K(Cy5) [Hsl1 KEN and dark D box mutant, Cy5 Hsl1 KEN peptide (10 nM) in presence of unlabeled mutated Hsl1 D box (100 µM)]
- Kd (Cdh1 WD40 domain (yeast); [1]): 10.9 µM
- Kd (Cdh1 WD40 domain (yeast); [3]): 6.35 µM
- Kd (Cdh1 WD40 domain (yeast); [2]): 15.5 µM

Molecule: GVSTNKENEGPEYPTKIE-K(Cy5) [Hsl1 KEN and dark D box, Cy5 Hsl1 KEN peptide (10 nM) in presence of unlabeled Hsl1 D box (100 µM)]
- Kd (Cdh1 WD40 domain (yeast); [1]): 3.37 µM
- Kd (Cdh1 WD40 domain (yeast); [3]): 3.41 µM
- Kd (Cdh1 WD40 domain (yeast); [2]): 3.34 µM
